Measurements published in ChEMBL document CHEMBL1275550, “In vitro activity of doripenem, a carbapenem for the treatment of challenging infections caused by gram-negative bacteria, against recent clinical isolates from the United States” (2008).
Converted amounts (≈) assume the structure as drawn.

What was measured:
Assay type in all cases: functional
Escherichia coli [1] = experiment: Antimicrobial activity against ESBL producing Escherichia coli assessed as resistant isolate by broth microdilution method
Klebsiella pneumoniae [2] = experiment: Antimicrobial activity against Non-ESBL Klebsiella pneumoniae assessed as resistant isolate by broth microdilution method
Klebsiella pneumoniae [3] = experiment: Antimicrobial activity against ESBL producing Klebsiella pneumoniae assessed as resistant isolate by broth microdilution method
Proteus mirabilis [4] = experiment: Antimicrobial activity against Non-ESBL Proteus mirabilis assessed as resistant isolate by broth microdilution method
Citrobacter [5] = experiment: Antimicrobial activity against Citrobacter with nonderepressed AmpC beta-lactamsae assessed as resistant isolate by broth microdilution method
Pseudomonas aeruginosa [6] = experiment: Antimicrobial activity against imipenem non-susceptible Pseudomonas aeruginosa assessed as resistant isolate by broth microdilution method
Staphylococcus [7] = experiment: Antimicrobial activity against methicillin-resistant coagulase-negative Staphylococcus by broth microdilution method
Streptococcus pneumoniae = experiment: Antimicrobial activity against penicillin-resistant Streptococcus pneumoniae assessed as resistant isolate by broth microdilution method
Escherichia coli [8] = experiment: Antimicrobial activity against Escherichia coli assessed as intermediate isolate by broth microdilution method
Klebsiella pneumoniae [9] = experiment: Antimicrobial activity against Klebsiella pneumoniae assessed as intermediate isolate by broth microdilution method
Enterobacter cloacae [10] = experiment: Antimicrobial activity against Enterobacter cloacae assessed as intermediate isolate by broth microdilution method
Citrobacter [11] = experiment: Antimicrobial activity against Citrobacter assessed as intermediate isolate by broth microdilution method
Citrobacter [12] = experiment: Antimicrobial activity against Citrobacter assessed as resistant isolate by broth microdilution method
Serratia marcescens [13] = experiment: Antimicrobial activity against Serratia marcescens assessed as intermediate isolate by broth microdilution method
Pseudomonas aeruginosa [14] = experiment: Antimicrobial activity against Pseudomonas aeruginosa assessed as resistant isolate by broth microdilution method
Acinetobacter [15] = experiment: Antimicrobial activity against Acinetobacter assessed as intermediate isolate by broth microdilution method
Acinetobacter [16] = experiment: Antimicrobial activity against Acinetobacter assessed as resistant isolate by broth microdilution method
Staphylococcus [17] = experiment: Antimicrobial activity against methicillin-susceptible coagulase-negative Staphylococcus assessed as susceptible isolate by broth microdilution method
Enterobacteriaceae [18] = experiment: Antimicrobial activity against ceftazidime non-susceptible Enterobacteriaceae by broth microdilution method in presence of Tazobactam
Enterobacteriaceae [19] = experiment: Antimicrobial activity against ceftazidime-susceptible Enterobacteriaceae assessed as susceptible isolate by broth microdilution method in presence of Tazobactam
Enterobacteriaceae [20] = experiment: Antimicrobial activity against ceftazidime non-susceptible Enterobacteriaceae assessed as susceptible isolate by broth microdilution method in presence of Tazobactam
Escherichia coli [21] = experiment: Antimicrobial activity against Non-ESBL Escherichia coli by broth microdilution method in presence of Tazobactam
Escherichia coli [22] = experiment: Antimicrobial activity against Non-ESBL Escherichia coli assessed as intermediate isolate by broth microdilution method in presence of Tazobactam
Escherichia coli [23] = experiment: Antimicrobial activity against ESBL producing Escherichia coli assessed as susceptible isolate by broth microdilution method in presence of Tazobactam
Escherichia coli [24] = experiment: Antimicrobial activity against ESBL producing Escherichia coli assessed as resistant isolate by broth microdilution method in presence of Tazobactam
Klebsiella pneumoniae [25] = experiment: Antimicrobial activity against Non-ESBL Klebsiella pneumoniae assessed as resistant isolate by broth microdilution method in presence of Tazobactam
Klebsiella pneumoniae [26] = experiment: Antimicrobial activity against ESBL producing Klebsiella pneumoniae assessed as susceptible isolate by broth microdilution method in presence of Tazobactam
Pseudomonas aeruginosa [27] = experiment: Antimicrobial activity against Pseudomonas aeruginosa isolated from ICU patient assessed as resistant isolate by broth microdilution method
Pseudomonas aeruginosa [28] = experiment: Antimicrobial activity against Pseudomonas aeruginosa isolated from non-ICU patient assessed as susceptible isolate by broth microdilution method in presence of Tazobactam
Pseudomonas aeruginosa [29] = experiment: Antimicrobial activity against Pseudomonas aeruginosa isolated from non-ICU patient assessed as resistant isolate by broth microdilution method in presence of Tazobactam
Pseudomonas aeruginosa [30] = experiment: Antimicrobial activity against Pseudomonas aeruginosa isolated from ICU patient assessed as resistant isolate by broth microdilution method in presence of Tazobactam
Proteus mirabilis [31] = experiment: Antimicrobial activity against Non-ESBL Proteus mirabilis assessed as intermediate isolate by broth microdilution method in presence of Tazobactam
Enterobacter cloacae [32] = experiment: Antimicrobial activity against Enterobacter cloacae with nonderepressed AmpC beta-lactamsae assessed as intermediate isolate by broth microdilution method in presence of Tazobactam
Enterobacter cloacae [33] = experiment: Antimicrobial activity against Enterobacter cloacae with nonderepressed AmpC beta-lactamsae assessed as resistant isolate by broth microdilution method in presence of Tazobactam
Enterobacter cloacae [34] = experiment: Antimicrobial activity against Enterobacter cloacae with derepressed AmpC beta-lactamsae assessed as susceptible isolate by broth microdilution method in presence of Tazobactam
Citrobacter [35] = experiment: Antimicrobial activity against Citrobacter with nonderepressed AmpC beta-lactamsae assessed as susceptible isolate by broth microdilution method in presence of Tazobactam
Citrobacter [36] = experiment: Antimicrobial activity against Citrobacter with nonderepressed AmpC beta-lactamsae assessed as resistant isolate by broth microdilution method in presence of Tazobactam
Citrobacter [37] = experiment: Antimicrobial activity against Citrobacter with derepressed AmpC beta-lactamsae assessed as intermediate isolate by broth microdilution method in presence of Tazobactam
Serratia marcescens [38] = experiment: Antimicrobial activity against ceftazidime susceptible Serratia marcescens assessed as susceptible isolate by broth microdilution method in presence of Tazobactam
Serratia marcescens [39] = experiment: Antimicrobial activity against Ceftazidime susceptible Serratia marcescens assessed as intermediate isolate by broth microdilution method in presence of tazobactam
Serratia marcescens [40] = experiment: Antimicrobial activity against ceftazidime non-susceptible Serratia marcescens assessed as susceptible isolate by broth microdilution method in presence of Tazobactam
Serratia marcescens [41] = experiment: Antimicrobial activity against Ceftazidime non-susceptible Serratia marcescens assessed as intermediate isolate by broth microdilution method in presence of tazobactam
Serratia marcescens [42] = experiment: Antimicrobial activity against ceftazidime non-susceptible Serratia marcescens assessed as resistant isolate by broth microdilution method in presence of Tazobactam
Pseudomonas aeruginosa [43] = experiment: Antimicrobial activity against ceftazidime susceptible Pseudomonas aeruginosa by broth microdilution method in presence of Tazobactam
Pseudomonas aeruginosa [44] = experiment: Antimicrobial activity against ceftazidime non-susceptible Pseudomonas aeruginosa by broth microdilution method in presence of Tazobactam
Pseudomonas aeruginosa [45] = experiment: Antimicrobial activity against ceftazidime susceptible Pseudomonas aeruginosa assessed as susceptible isolate by broth microdilution method in presence of Tazobactam
Pseudomonas aeruginosa [46] = experiment: Antimicrobial activity against Ceftazidime susceptible Pseudomonas aeruginosa assessed as intermediate isolate by broth microdilution method in presence of tazobactam
Pseudomonas aeruginosa [47] = experiment: Antimicrobial activity against Ceftazidime non-susceptible Pseudomonas aeruginosa assessed as resistant isolate by broth microdilution method in presence of tazobactam
Pseudomonas aeruginosa [48] = experiment: Antimicrobial activity against imipenem susceptible Pseudomonas aeruginosa assessed as resistant isolate by broth microdilution method in presence of Tazobactam
Acinetobacter [49] = experiment: Antimicrobial activity against imipenem susceptible Acinetobacter assessed as susceptible isolate by broth microdilution method in presence of Tazobactam
Acinetobacter [50] = experiment: Antimicrobial activity against imipenem non-susceptible Acinetobacter assessed as intermediate isolate by broth microdilution method in presence of Tazobactam

SMILES: CC(C)(O/N=C(\C(=O)N[C@@H]1C(=O)N2C(C(=O)[O-])=C(C[n+]3ccccc3)CS[C@H]12)c1csc(N)n1)C(=O)O [CEFTAZIDIME]
- Activity (Escherichia coli [1]): 56.7%
- Activity (Klebsiella pneumoniae [2]): 0.6%
- Activity (Klebsiella pneumoniae [3]): 95.5%
- Activity (Proteus mirabilis [4]): 0.3%
- Activity (Citrobacter [5]): 1.3%
- Activity (Pseudomonas aeruginosa [6]): 18.4%

SMILES: C[C@@H](O)[C@H]1C(=O)N2C(C(=O)O)=C(S[C@@H]3CN[C@H](CNS(N)(=O)=O)C3)[C@H](C)[C@H]12 [DORIPENEM]
- MIC50 (Staphylococcus [7]): 1 µg/mL (≈ 2.38 µM)
- MIC90 (Staphylococcus [7]): 8 µg/mL (≈ 19 µM)

SMILES: C[C@@H](O)[C@H]1C(=O)N2C(C(=O)O)=C(SCCNC=N)C[C@H]12 [IMIPENEM ANHYDROUS]
- Activity (Streptococcus pneumoniae): 2.1%
- Activity (Escherichia coli [8]): 0%
- Activity (Klebsiella pneumoniae [9]): 0.2%
- Activity (Proteus mirabilis [4]): 0.2%
- Activity (Enterobacter cloacae [10]): 0.4%
- Activity (Citrobacter [11]): 0%
- Activity (Citrobacter [12]): 0.2%
- Activity (Citrobacter [5]): 0.2%
- Activity (Serratia marcescens [13]): 0.3%
- Activity (Pseudomonas aeruginosa [14]): 16%
- Activity (Acinetobacter [15]): 0.7%
- Activity (Acinetobacter [16]): 17%
- MIC50 (Staphylococcus [7]): 0.25 µg/mL (≈ 0.835 µM)
- MIC90 (Staphylococcus [7]): 16 µg/mL (≈ 53.4 µM)
- Activity (Staphylococcus [17]): 99.4%

SMILES: C[C@@H](O)[C@H]1C(=O)N2C(C(=O)O)=C(S[C@@H]3CN[C@H](C(=O)N(C)C)C3)[C@H](C)[C@H]12 [MEROPENEM]
- Activity (Streptococcus pneumoniae): 2.3%
- Activity (Escherichia coli [8]): 0%
- Activity (Klebsiella pneumoniae [9]): 0%
- Activity (Klebsiella pneumoniae [2]): 0.2%
- Activity (Klebsiella pneumoniae [3]): 4.5%
- Activity (Enterobacter cloacae [10]): 0.4%
- Activity (Citrobacter [11]): 0%
- Activity (Serratia marcescens [13]): 0%
- Activity (Pseudomonas aeruginosa [14]): 10.2%
- Activity (Pseudomonas aeruginosa [6]): 40.6%
- Activity (Acinetobacter [15]): 1.4%
- Activity (Acinetobacter [16]): 18%
- Activity (Staphylococcus [17]): 99.4%

SMILES: CCN1CCN(C(=O)N[C@@H](C(=O)N[C@@H]2C(=O)N3[C@@H]2SC(C)(C)[C@@H]3C(=O)O)c2ccccc2)C(=O)C1=O [PIPERACILLIN]
- MIC50 (Enterobacteriaceae [18]): 128 µg/mL
- MIC90 (Enterobacteriaceae [18]): > 128 µg/mL
- Activity (Enterobacteriaceae [19]): 95.8%
- Activity (Enterobacteriaceae [20]): 15.6%
- MIC50 (Escherichia coli [21]): 4 µg/mL
- MIC90 (Escherichia coli [21]): 8 µg/mL
- Activity (Escherichia coli [22]): 3.2%
- Activity (Escherichia coli [23]): 53.3%
- Activity (Escherichia coli [24]): 30%
- Activity (Klebsiella pneumoniae [25]): 1.7%
- Activity (Klebsiella pneumoniae [26]): 11.4%
- MIC50 (Pseudomonas aeruginosa [27]): 16 µg/mL
- Activity (Pseudomonas aeruginosa [28]): 87%
- Activity (Pseudomonas aeruginosa [29]): 13%
- Activity (Pseudomonas aeruginosa [30]): 21.6%
- Activity (Proteus mirabilis [31]): 0.3%
- Activity (Enterobacter cloacae [32]): 3.2%
- Activity (Enterobacter cloacae [33]): 3.5%
- Activity (Enterobacter cloacae [34]): 5.8%
- Activity (Citrobacter [35]): 93.7%
- Activity (Citrobacter [36]): 2.6%
- Activity (Citrobacter [37]): 29.1%
- Activity (Serratia marcescens [38]): 93.6%
- Activity (Serratia marcescens [39]): 4.4%
- Activity (Serratia marcescens [40]): 20%
- Activity (Serratia marcescens [41]): 30%
- Activity (Serratia marcescens [42]): 50%
- MIC50 (Pseudomonas aeruginosa [43]): 16 µg/mL
- MIC90 (Pseudomonas aeruginosa [43]): 64 µg/mL
- MIC50 (Pseudomonas aeruginosa [44]): > 128 µg/mL
- MIC90 (Pseudomonas aeruginosa [44]): > 128 µg/mL
- Activity (Pseudomonas aeruginosa [45]): 96.3%
- Activity (Pseudomonas aeruginosa [46]): 0%
- Activity (Pseudomonas aeruginosa [47]): 82.7%
- Activity (Pseudomonas aeruginosa [48]): 9.4%
- Activity (Acinetobacter [49]): 52.1%
- Activity (Acinetobacter [50]): 3.9%
